The text below walks through data of US9549932B2, “2-(morpholin-4-yl)-1,7-naphthyridines” (BAYER PHARMA AKTIENGESELLSCHAFT, priority 2014, dated 2017).

The term pIC50 denotes −log10 of the IC50, conventionally taken in molar units.

pIC50: −log10 of the molar value. Where a name gives a salt, the structure may show the parent alone. Read-outs that look alike come from different tables or passages of the source.

This assay has as its target full-length human ATR protein (Homo sapiens (Human), UniProt Q13535). Put plainly: Binding assay ATR (TR-FRET tracer displacement). The conditions noted are these: TR-FRET. The source says:
To determine of binding activity of the test compounds, full-length human ATR protein was expressed and purified together with ATRIP as described above. Furthermore, a fluorescently labelled compound (either tracer A or B as described above) was used as a tracer molecule. Detection of the binding event of the tracer was achieved by time-resolved fluorescence energy transfer (TR-FRET). We used an anti-GST-Terbium antibody (CisBio) that binds to the GST-tag at the N-terminus of ATR-kinase. […] Displacement of the fluorescent tracer by a test compound leads to a reduction of the TR-FRET-signal.
For the assay 50 nl of a 100-fold concentrated solution of the test compound in DMSO was pipetted into a black low volume 384well microtiter plate (MTP, Greiner Bio-One, Frickenhausen, Germany). […] The ATR-working solution was incubated for 30 min at 22° C. prior to dispensing to pre-form the complex of antiGST-Tb+GST-ATR+ATRIP. Then, 3 μl of the ATR-working solution were added to the test compound and the mixture was incubated for 10 min at 22° C. to allow pre-binding of the test compounds to ATR/ATRIP. Then, 2 μl of a 100 nM solution of either tracer A or B in assay buffer were added to the ATR-working solution. The resulting mixture was incubated for 30 min at 22° C. […] The dilution series were prepared separately before the assay on the level of the 100 fold concentrated solutions in DMSO by serial 1:3.4 dilutions in duplicate values for each concentration. IC50 values were calculated by a 4 parameter fit using standard software (GraphPad prism or equivalent).

Where [1] appears, read: tracer A, read-out: ATR binding (tracer A) IC50.
The mark [2] stands for this setting: tracer B, read-out: ATR binding (tracer B) IC50.

full-length human ATR protein, sequence (Q13535 other isoform, or with tags, fused parts or gaps): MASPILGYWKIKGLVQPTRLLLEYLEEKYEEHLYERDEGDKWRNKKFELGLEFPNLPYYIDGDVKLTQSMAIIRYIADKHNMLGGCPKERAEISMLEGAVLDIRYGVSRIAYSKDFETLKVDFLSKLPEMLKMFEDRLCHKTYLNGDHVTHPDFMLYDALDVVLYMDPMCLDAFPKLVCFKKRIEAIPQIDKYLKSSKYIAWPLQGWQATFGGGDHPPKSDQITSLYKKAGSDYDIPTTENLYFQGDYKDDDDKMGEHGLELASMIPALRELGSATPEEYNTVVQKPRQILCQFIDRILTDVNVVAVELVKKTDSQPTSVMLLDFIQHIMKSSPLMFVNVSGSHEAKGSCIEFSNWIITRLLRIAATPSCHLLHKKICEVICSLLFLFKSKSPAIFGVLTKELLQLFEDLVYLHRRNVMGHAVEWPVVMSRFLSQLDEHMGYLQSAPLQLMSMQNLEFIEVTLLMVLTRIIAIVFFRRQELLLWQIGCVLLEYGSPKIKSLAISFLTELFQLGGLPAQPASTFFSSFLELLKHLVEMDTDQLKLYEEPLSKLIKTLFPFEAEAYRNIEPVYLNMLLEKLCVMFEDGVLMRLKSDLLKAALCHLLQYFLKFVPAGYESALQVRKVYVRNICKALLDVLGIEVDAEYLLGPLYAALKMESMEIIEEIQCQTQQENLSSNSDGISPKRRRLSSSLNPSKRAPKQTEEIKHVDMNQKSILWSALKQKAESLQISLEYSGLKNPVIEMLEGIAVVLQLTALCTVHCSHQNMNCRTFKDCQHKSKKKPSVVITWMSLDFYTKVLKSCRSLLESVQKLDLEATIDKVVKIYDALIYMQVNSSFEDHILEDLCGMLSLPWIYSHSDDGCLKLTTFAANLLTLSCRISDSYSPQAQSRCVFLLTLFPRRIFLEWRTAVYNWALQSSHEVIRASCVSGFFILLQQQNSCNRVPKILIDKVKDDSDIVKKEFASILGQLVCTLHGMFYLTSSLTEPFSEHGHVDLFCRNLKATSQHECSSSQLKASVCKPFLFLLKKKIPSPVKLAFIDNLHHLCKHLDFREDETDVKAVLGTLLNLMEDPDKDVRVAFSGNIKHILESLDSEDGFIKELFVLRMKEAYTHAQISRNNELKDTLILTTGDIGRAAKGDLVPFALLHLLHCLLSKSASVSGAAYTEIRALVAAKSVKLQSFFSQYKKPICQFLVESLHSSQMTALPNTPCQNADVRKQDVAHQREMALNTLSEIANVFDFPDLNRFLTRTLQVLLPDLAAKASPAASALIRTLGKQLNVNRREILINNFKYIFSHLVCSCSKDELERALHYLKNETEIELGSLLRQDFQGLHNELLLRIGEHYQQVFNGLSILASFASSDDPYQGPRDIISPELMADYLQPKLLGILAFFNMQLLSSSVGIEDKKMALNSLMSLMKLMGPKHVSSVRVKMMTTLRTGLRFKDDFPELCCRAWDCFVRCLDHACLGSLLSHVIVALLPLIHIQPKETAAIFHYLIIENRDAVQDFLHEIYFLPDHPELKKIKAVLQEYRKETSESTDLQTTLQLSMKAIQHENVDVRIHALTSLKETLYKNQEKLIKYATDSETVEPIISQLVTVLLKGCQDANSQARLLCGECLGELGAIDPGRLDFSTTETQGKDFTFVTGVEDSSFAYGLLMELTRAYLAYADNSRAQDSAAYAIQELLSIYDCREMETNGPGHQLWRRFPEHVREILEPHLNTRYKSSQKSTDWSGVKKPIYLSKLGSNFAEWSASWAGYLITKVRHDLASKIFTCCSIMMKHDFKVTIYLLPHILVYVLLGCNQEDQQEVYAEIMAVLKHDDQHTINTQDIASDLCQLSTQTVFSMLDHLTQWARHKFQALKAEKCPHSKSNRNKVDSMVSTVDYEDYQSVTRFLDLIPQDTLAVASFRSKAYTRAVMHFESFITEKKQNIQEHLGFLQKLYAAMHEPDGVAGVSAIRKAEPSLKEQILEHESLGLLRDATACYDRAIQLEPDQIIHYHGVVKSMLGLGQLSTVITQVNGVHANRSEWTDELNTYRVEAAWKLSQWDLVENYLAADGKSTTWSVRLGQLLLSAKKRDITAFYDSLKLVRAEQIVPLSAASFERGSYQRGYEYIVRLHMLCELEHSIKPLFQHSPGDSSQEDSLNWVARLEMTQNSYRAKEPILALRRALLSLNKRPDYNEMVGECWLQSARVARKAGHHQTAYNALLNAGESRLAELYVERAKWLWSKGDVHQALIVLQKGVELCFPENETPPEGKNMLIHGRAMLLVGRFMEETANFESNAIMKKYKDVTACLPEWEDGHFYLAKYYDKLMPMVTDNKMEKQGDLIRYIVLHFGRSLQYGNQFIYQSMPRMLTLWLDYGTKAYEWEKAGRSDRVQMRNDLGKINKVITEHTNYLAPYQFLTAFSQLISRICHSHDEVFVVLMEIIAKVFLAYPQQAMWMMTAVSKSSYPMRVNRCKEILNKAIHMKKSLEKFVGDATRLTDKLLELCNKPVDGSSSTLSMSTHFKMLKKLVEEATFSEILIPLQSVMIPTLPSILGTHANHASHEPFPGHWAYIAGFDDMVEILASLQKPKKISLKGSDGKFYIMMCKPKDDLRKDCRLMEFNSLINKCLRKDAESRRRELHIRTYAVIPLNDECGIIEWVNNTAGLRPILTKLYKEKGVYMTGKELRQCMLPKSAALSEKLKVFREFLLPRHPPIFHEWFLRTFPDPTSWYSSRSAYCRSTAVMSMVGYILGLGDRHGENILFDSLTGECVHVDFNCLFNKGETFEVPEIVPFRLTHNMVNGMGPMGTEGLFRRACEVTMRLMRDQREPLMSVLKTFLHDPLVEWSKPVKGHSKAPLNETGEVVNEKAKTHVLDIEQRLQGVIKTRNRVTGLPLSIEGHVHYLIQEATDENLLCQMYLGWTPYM
full-length human ATR protein, sequence (Q8WXE1 other isoform, or with tags, fused parts or gaps partner): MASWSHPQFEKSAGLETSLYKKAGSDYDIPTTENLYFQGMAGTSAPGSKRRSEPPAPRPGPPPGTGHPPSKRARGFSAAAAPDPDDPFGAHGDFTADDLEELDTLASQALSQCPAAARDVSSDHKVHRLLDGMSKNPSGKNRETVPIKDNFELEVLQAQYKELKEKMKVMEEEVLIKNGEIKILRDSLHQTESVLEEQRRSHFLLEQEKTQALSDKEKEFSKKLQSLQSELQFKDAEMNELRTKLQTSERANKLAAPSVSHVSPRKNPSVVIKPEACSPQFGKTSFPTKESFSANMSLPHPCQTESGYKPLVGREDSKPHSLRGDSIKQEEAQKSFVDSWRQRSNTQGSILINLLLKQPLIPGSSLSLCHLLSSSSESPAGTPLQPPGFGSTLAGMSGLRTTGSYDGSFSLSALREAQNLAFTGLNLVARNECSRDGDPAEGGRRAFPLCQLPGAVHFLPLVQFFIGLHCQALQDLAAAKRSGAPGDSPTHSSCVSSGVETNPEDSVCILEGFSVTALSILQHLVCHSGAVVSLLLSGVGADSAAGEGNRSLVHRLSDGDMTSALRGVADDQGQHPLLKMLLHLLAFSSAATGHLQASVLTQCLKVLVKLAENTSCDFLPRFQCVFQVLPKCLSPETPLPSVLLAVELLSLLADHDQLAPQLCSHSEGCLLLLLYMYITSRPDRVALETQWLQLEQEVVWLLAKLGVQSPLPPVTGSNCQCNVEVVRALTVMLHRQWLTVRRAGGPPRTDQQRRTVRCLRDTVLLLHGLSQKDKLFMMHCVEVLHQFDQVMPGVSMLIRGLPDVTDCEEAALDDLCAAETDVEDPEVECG

Consider `C[C@@H]1CN[C@@H](C)CN1c1cc(N2CCOCC2)nc2c(-c3ccn[nH]3)nccc12` (relative stereo) [Example 178, 4-[(trans)-2,5-dimethylpiperazin-1-yl]-2-(morpholin-4-yl)-8-(1H-pyrazol-5-yl)-1,7-naphthyridine], for which the pIC50 under setting [1] was 6.42.

Take `C[C@@H]1COCCN1c1cc(N=S(C)(=O)c2ccccc2F)c2ccnc(-c3ccn[nH]3)c2n1` (single isomer, unassigned) [Example 140]: the pIC50 under setting [1] was 7.12.

With `C[C@@H]1COCCN1c1cc(N=S(C)(=O)c2ccccc2F)c2ccnc(-c3ccn[nH]3)c2n1` (single isomer, unassigned) [Example 141], the pIC50 under setting [1] was 6.41.

Take `C[C@@H]1COCCN1c1cc([C@H]2C[C@@H]2C)c2ccnc(-c3ccn[nH]3)c2n1` (stereo in doubt) [Example 171, 4-[(trans)-2-methylcyclopropyl]-2-[(3R)-3-methylmorpholin-4-yl]-8-(1H-pyrazol-5-yl)-1,7-naphthyridine]: under setting [1], the pIC50 was 7.02.

As for `NC(=O)[C@H]1CCCN1c1cc(N2CCOCC2)nc2c(-c3ccn[nH]3)nccc12` (stereo in doubt) [Example 428, 1-[2-(morpholin-4-yl)-8-(1H-pyrazol-5-yl)-1,7-naphthyridin-4-yl]-prolinamide], under setting [1], the pIC50 is 7.16.

For the compound `OC[C@H]1CCCN(c2cc(N3CCOCC3)nc3c(-c4ccn[nH]4)nccc23)C1` (stereo in doubt) [Example 437, {1-[2-(morpholin-4-yl)-8-(1H-pyrazol-5-yl)-1,7-naphthyridin-4-yl]piperidin-3-yl}methanol], the pIC50 under setting [1] was 6.93.

Take `CCOC(=O)N=S(C)(=O)c1ccc(-c2cc(N3CCOCC3)nc3c(-c4ccn[nH]4)nccc23)cc1` (centres unmarked) [Example 1]: the pIC50 reads like this: under setting [1], 7.43; under setting [2], 7.62.

Take `CS(=N)(=O)c1ccc(-c2cc(N3CCOCC3)nc3c(-c4ccn[nH]4)nccc23)cc1` (centres unmarked) [Example 2]: the pIC50 by setting is: under setting [1], 7.02; under setting [2], 7.42.

In the case of `CS(=O)(=O)c1ccc(-c2cc(N3CCOCC3)nc3c(-c4ccn[nH]4)nccc23)cn1` [Example 3, 4-[6-(methylsulfonyl)pyridin-3-yl]-2-(morpholin-4-yl)-8-(1H-pyrazol-5-yl)-1,7-naphthyridine], the pIC50 is 7.24 under setting [1] and 7.41 under setting [2].

Consider `C1=C(c2cc(N3CCOCC3)nc3c(-c4cc[nH]n4)nccc23)CCOC1` [Example 4, 4-(3,6-dihydro-2H-pyran-4-yl)-2-(morpholin-4-yl)-8-(1H-pyrazol-3-yl)-[1,7]naphthyridine], for which the pIC50 runs as follows: under setting [1], 7.21; under setting [2], 7.36.

Regarding `CN=S(C)(=O)c1ccc(-c2cc(N3CCOCC3)nc3c(-c4ccn[nH]4)nccc23)cc1` (centres unmarked) [Example 5, 4-[4-(N,S-dimethylsulfonimidoyl)phenyl]-2-[morpholin-4-yl]-8-(1H-pyrazol-5-yl)-1,7-naphthyridine], the pIC50 is, setting by setting: under setting [1], 7.19; under setting [2], 7.47.

Regarding `Cc1cc(S(C)(=O)=O)ncc1-c1cc(N2CCOCC2)nc2c(-c3ccn[nH]3)nccc12` [Example 6, 4-[4-methyl-6-(methylsulfonyl)pyridin-3-yl]-2-(morpholin-4-yl)-8-(1H-pyrazol-5-yl)-1,7-naphthyridine], under setting [1], the negative logarithm of the IC50 (pIC50) was 7.16.

Regarding `CS(=O)(=O)c1ccc(-c2cc(N3CCOCC3)nc3c(-c4cc[nH]n4)nccc23)cc1` [Example 7, 4-(4-methanesulphonylphenyl)-2-(morpholin-4-yl)-8-(1H-pyrazol-3-yl)-[1,7]naphthyridine], the pIC50 is, setting by setting: under setting [1], 7.23; under setting [2], 7.58.

With `CS(=O)(=O)c1ccccc1-c1cc(N2CCOCC2)nc2c(-c3cc[nH]n3)nccc12` [Example 8, 4-(2-methanesulphonylphenyl)-2-(morpholin-4-yl)-8-(1H-pyrazol-3-yl)-[1,7]naphthyridine hydrochloride], the pIC50 under setting [1] is 6.93 and the pIC50 under setting [2] was 7.16.

As to `COP(=O)(OC)c1ccc(-c2cc(N3CCOCC3)nc3c(-c4ccn[nH]4)nccc23)cc1` [Example 9, Dimethyl {4-[2-(morpholin-4-yl)-8-(1H-pyrazol-5-yl)-1,7-naphthyridin-4-yl]phenyl}phosphonate], the pIC50 by setting is: under setting [1], 6.92; under setting [2], 6.90.

In the case of `C=C(C)c1cc(N2CCOCC2)nc2c(-c3cc[nH]n3)nccc12` [Example 10, 4-isopropenyl-2-(morpholin-4-yl)-8-(1H-pyrazol-3-yl)-[1,7]naphthyridine], the pIC50 by setting is: under setting [1], 6.90; under setting [2], 7.36.

For the compound `c1ccc(-c2cc(N3CCOCC3)nc3c(-c4cc[nH]n4)nccc23)cc1` [Example 11, 2-(morpholin-4-yl)-4-phenyl-8-(1H-pyrazol-3-yl)-[1,7]naphthyridine], the pIC50 is, setting by setting: under setting [1], 6.87; under setting [2], 7.06.

Consider `CCS(=N)(=O)c1ccc(-c2cc(N3CCOCC3)nc3c(-c4ccn[nH]4)nccc23)cc1` (centres unmarked) [Example 12, 4-[4-(S-ethylsulfonimidoyl)phenyl]-2-(morpholin-4-yl)-8-(1H-pyrazol-5-yl)-1,7-naphthyridine], for which the pIC50 reads like this: under setting [1], 6.87; under setting [2], 7.33.

`CCOC(=O)N=S(C)(=O)c1cccc(-c2cc(N3CCOCC3)nc3c(-c4ccn[nH]4)nccc23)c1` (centres unmarked) [Example 13]: the pIC50 under setting [1] is 6.85 and the pIC50 under setting [2] was 6.98.

Consider `CN1CC=C(c2cc(N3CCOCC3)nc3c(-c4ccn[nH]4)nccc23)CC1` [Example 14, 4-(1-methyl-1,2,3,6-tetrahydropyridin-4-yl)-2-(morpholin-4-yl)-8-(1H-pyrazol-5-yl)-1,7-naphthyridine], for which the pIC50 under setting [1] was 6.79 and the pIC50 under setting [2] was 7.10.

For `CS(=O)(=O)c1cccc(-c2cc(N3CCOCC3)nc3c(-c4cc[nH]n4)nccc23)c1` [Example 15, 4-(3-methanesulphonylphenyl)-2-(morpholin-4-yl)-8-(1H-pyrazol-3-yl)-[1,7]naphthyridine], the pIC50 under setting [1] is 6.79 and the pIC50 under setting [2] is 6.76.

Turning to `Cc1cc(-c2cc(N3CCOCC3)nc3c(-c4ccn[nH]4)nccc23)cnc1S(C)(=O)=O` [Example 16, 4-[5-methyl-6-(methylsulfonyl)pyridin-3-yl]-2-(morpholin-4-yl)-8-(1H-pyrazol-5-yl)-1,7-naphthyridine], the pIC50 under setting [1] was 6.76.

On to `C1=C(c2cc(N3CCOCC3)nc3c(-c4ccn[nH]4)nccc23)CCNC1` [Example 17, 2-(morpholin-4-yl)-8-(1H-pyrazol-5-yl)-4-(1,2,3,6-tetrahydropyridin-4-yl)-1,7-naphthyridine], for which the negative-log IC50 (pIC50) under setting [1] is 6.73 and the pIC50 under setting [2] was 6.93.

Consider `c1cc2c(C3CC3)cc(N3CCOCC3)nc2c(-c2cc[nH]n2)n1` [Example 18, 4-cyclopropyl-2-(morpholin-4-yl)-8-(1H-pyrazol-3-yl)-[1,7]naphthyridine], for which the pIC50 is, setting by setting: under setting [1], 6.64; under setting [2], 7.12.

As for `CS(=N)(=O)c1cccc(-c2cc(N3CCOCC3)nc3c(-c4ccn[nH]4)nccc23)c1` (centres unmarked) [Example 19], the pIC50 by setting is: under setting [1], 6.53; under setting [2], 6.74.

For the compound `Cc1cc(N2CCOCC2)nc2c(-c3cc[nH]n3)nccc12` [Example 20, 4-methyl-2-(morpholin-4-yl)-8-(1H-pyrazol-3-yl)-[1,7]naphthyridine hydrochloride], the negative-log IC50 (pIC50) under setting [1] was 6.09 and the pIC50 under setting [2] was 6.49.

Take `CS(=O)(=O)c1nc(-c2cc(N3CCOCC3)nc3c(-c4ccn[nH]4)nccc23)cs1` [Example 21, 4-[2-(methylsulfonyl)-1,3-thiazol-4-yl]-2-(morpholin-4-yl)-8-(1H-pyrazol-5-yl)-1,7-naphthyridine]: under setting [1], the negative logarithm of the IC50 (pIC50) is 6.72.

`O=c1cc(-c2cc(N3CCOCC3)nc3c(-c4ccn[nH]4)nccc23)cc[nH]1` [Example 22, 4-[2-(morpholin-4-yl)-8-(1H-pyrazol-5-yl)-1,7-naphthyridin-4-yl]pyridin-2(1H)-one]: the pIC50 under setting [1] was 6.33.

Regarding `Oc1ccc(-c2cc(N3CCOCC3)nc3c(-c4ccn[nH]4)nccc23)cn1` [Example 23, 5-[2-(morpholin-4-yl)-8-(1H-pyrazol-5-yl)-1,7-naphthyridin-4-yl]pyridin-2(1H)-one], the negative logarithm of the IC50 (pIC50) under setting [1] is 6.35.

As to `CS(=O)(=O)c1ccc(-c2cc(N3CCOCC3)nc3c(-c4ccn[nH]4)nccc23)c(F)c1` [Example 24, 4-[2-fluoro-4-(methylsulfonyl)phenyl]-2-(morpholin-4-yl)-8-(1H-pyrazol-5-yl)-1,7-naphthyridine], the pIC50 by setting is: under setting [1], 7.42; under setting [2], 7.68.

For the compound `CC(C)S(=N)(=O)c1ccc(-c2cc(N3CCOCC3)nc3c(-c4ccn[nH]4)nccc23)cc1` (stereo not drawn) [Example 25, 2-(morpholin-4-yl)-4-{4-[S-(propan-2-yl)sulfonimidoyl]phenyl}-8-(1H-pyrazol-5-yl)-1,7-naphthyridine], the pIC50 by setting is: under setting [1], 6.96; under setting [2], 7.12.

Turning to `C[C@@H]1COCCN1c1cc(-c2ccc(S(C)(=O)=O)cc2)c2ccnc(-c3cc[nH]n3)c2n1` [Example 26, 4-(4-methanesulphonylphenyl)-2-((R)-3-methylmorpholin-4-yl)-8-(2H-pyrazol-3-yl)-[1,7]naphthyridine], the pIC50 is, setting by setting: under setting [1], 7.81; under setting [2], 8.20.
